Assay results as given in patent US12338263B2, “Antibacterial aminoglycoside derivatives” (priority 2019, dated 2025).
In brackets after ≈: the same amount, converted by molar mass.

Columns and labels:
HK-2 cells = assay: Toxicity test on HK-2 cells (Alma Blue); type: cell-based
Procedure: (§1) On the day of the experiment, when the HK-2 cells in the culture flask reached 80%-90% confluent, the culture medium was discarded, the cells were washed twice with Dulbecco's phosphate buffered saline (DPBS) and digested for 1 to 2 minutes with 3 mL trypsin (T150 cell culture flask), and immediately 9 ml complete medium (RPMI1640+10% FBS) were added to terminate the digestion. After termination, single cells suspension were formed by pipetting gently, which were centrifuged at 1000 […] for 5 minutes. The supernatant was discarded, and fresh complete medium were added, and the cells were pipetted evenly. The actual cell density was measured according to the cell counter and the cell suspension was adjusted to 2.5×10^5 cells/mL. 80 μL of cell suspension was drawn by a row pipettor and added into a 96-well black bottom plate (2×10^4 cell/well), and then incubated in a carbon dioxide incubator for 4.5 hours, which was defined as a cell plate.
(§2) • a. The compound mother liquor was prepared according to the following table, with complete medium as the solvent;
(§3) • b. 50 microliters of complete medium was added into columns 3-11 in the 96-v well plate; • c. 75 microliters of test compound (50 mg/mL) and positive control were added to the second column of the 96-v well plate; • d. 25 microliters of compound was drawn from the second column and added into the third column, blown and sucked a few times by a row pipettor, then 25 microliters of liquid was drawn from the third column and added to the fourth column, and subsequently subjected to a 3-fold series dilution until the 10th column. From column 2 to column 11, the compound concentration was 50, 16.67, 5.56, 1.85, 0.62, 0.21, 0.07, 0.02, 0.008, 0 mg/mL; • e. 20 μL compound solutions of various concentrations prepared were transferred by a row pipettor to the corresponding wells of the cell plate, which was defined as a testing plate. Culture of the Testing Plate:
(§4) All the plates were incubated in an incubator at 37° C., 5% CO2 for 43 hours.
(§5) After incubation, 10 microliters of Alma Blue was added to the testing plate. The testing plate was immediately incubated in an incubator at 37° C., 5% CO2 for 3 hours. Then the fluorescence value of each well of the testing plate was read by a microplate reader (wavelength Ex 540 nm/Em 585 nm). Then prism software was used to simulate the curve to calculate CC50 value.

[1] = Toxicity test on HK-2 cells (Alma Blue); type: cell-based; settings: human, 43 hours incubation plus 3 hours Alma Blue, read-out: CC50 of HK-2 cell
Procedure: as §1, §2, §3, §4, §5

[2] = Evaluation of pharmacokinetics in rats; type: in vivo; settings: rat, plasma, male SD rats, 150 mg/kg single intravenous drop infusion for 30 minutes
Procedure: • 1) Experimental drug: Compound 1; • 2) Experimental animals: 3 male SD rats aged 7-9 weeks; • 3) Drug preparation: An appropriate amount of the drug was weighed and dissolved in saline to forma 60 mg/mL solution. Experimental Operation:
Animals were administered the drug at a dose of 150 mg/kg and a concentration of 60 mg/mL by a single intravenous drop infusion via the tail vein for 30 minutes. Plasma samples were collected from the animals at 0, 0.0333, 0.0833, 0.25, 0.5, 1, 2, 4, 6, 8 and 24 hours after administration. The LC-MS/MS method was used to determine the drug concentration in the plasma sample, and the kinetic parameters of the tested drug are shown in Table 2: […]

E. coli ATCC 25922 = assay: Antibacterial effect (MIC), micro-liquid dilution method (CLSI); type: cell-based; settings: Escherichia coli, ATCC25922
Procedure: (§6) Three strains Enterobacteriaceae E. coli ATCC 25922, E. coli ATCC BAA-2523, K. pneumonia ATCC BAA-1705 were used to determine the Minimum Inhibitory Concentration (MIC) of each compound by the micro-liquid dilution method according to the requirements of the Institute of Clinical and Laboratory Standard (CLSI). 2-fold series diluted compounds (with a final concentration range […]) were added to a round bottom 96-well plate (Catalog #3788, Corning). A single clone of fresh bacteria on the plate of Mueller Hinton II Agar (MHA, Cat. No. 211438, BD BBL™) after overnight culture was picked and suspended in sterile saline to adjust the concentration to 1×10^8 CFU/mL, and then diluted to 5×10^5 CFU/mL by Cation-Adjusted Mueller Hinton II Broth (MHB, Catalog #212332, BD BBL™), 100 μL of which was added to the round bottom 96-well plate containing the drug. The plate was inverted and incubated at 37° C. for 20-24 hours, and the MIC value was read. The lowest drug concentration that inhibits bacterial growth was defined as MIC.

E. coli ATCC BAA-2523 = assay: as above; type: cell-based; settings: Escherichia coli, ATCCBAA2523
Procedure: as §6

[3] = system: K. pneumoniae ATCC BAA-1705; assay: as above; type: cell-based; settings: Klebsiella pneumoniae, ATCCBAA1705
Procedure: as §6

[4] = system: E. coli ATCC-25922 (Enterobacteria ATCC-25922); assay: Drug efficacy in mice (mouse thigh muscle model); type: in vivo; settings: CD-1 mice, 30 mpk subcutaneously 2 h and 10 h after infection, read at 24 h; FIG. 1
Procedure: 12 female CD-1 mice were divided into 4 cages, 3 mice per cage, and were injected intraperitoneally with the immunosuppressant cyclophosphamide (150 mpk).
24 hours later, 4 cages of mice were injected intraperitoneally again with the immunosuppressant cyclophosphamide (100 mpk). The strain E. coli ATCC-25922 (Enterobacteria ATCC-25922) was recovered on a MHA plate. The recovered colonies were picked and dissolved in saline to prepare E. coli ATCC-25922 bacterial solution with a concentration of 1.00E+07 CFU/mL for later use in mouse thigh muscle infection. The amount of bacterial solution injected into the thigh muscle of experimental mice was […], that is, the inoculation amount was 1.00E+06 CFU/mouse. […]
The specific administration of mice was as follows: • (1) 2 h after infection: At the end of 2 h infection, the thigh muscle tissue of the mice in the first cage was taken and placed in 10 mL saline, homogenized, and dotted on a plate with gradient dilution, two duplications for each mouse. The amount of bacteria loaded in the thigh muscle tissue of the mouse was counted. […] The amount of bacteria loaded in the thigh muscle tissue of the mouse was counted, and the experimental results were summarized and shown in FIG. 1.

Structure (SMILES): CN[C@@H]1[C@@H](O)[C@@H](O[C@@H]2[C@@H](O)[C@H](O[C@H]3OC(CNCCOCCONC(=N)N)=CC[C@H]3N)[C@@H](N)C[C@H]2NC(=O)[C@@H](O)CCN)OC[C@]1(C)O [Compound 1]
- toxicity to HK-2 cells compared with Netilmicin and Amikacin (HK-2 cells): significantly lower than that of Netilmicin and Amikacin
- Maximum inhibition rate (HK-2 cells; 43 hours incubation plus 3 hours Alma Blue): 21.96%
- toxicity to HK-2 cells compared with Plazomicin (HK-2 cells; toxicity regression curve and software prediction (FIG. 8-11)): lower than Plazomicin
- CC50 at 43 h [1]: > 10000 µg/mL
- AUC ([2]; read-out: Area Under the Curve AUC): 440 µM·h
- clearance ([2]; read-out: Clearance Rate Cl): 0.569 L/h/kg
- half-life ([2]; read-out: Half-Life T1/2 (converted)): 3.62 h
- Cmax ([2]; read-out: Maximum Concentration Cmax): 316 µM
- Vd ([2]; read-out: Volume of Distribution Vd): 1.5 L/kg
- MIC (E. coli ATCC 25922): 2 µM (≈ 1.39 µg/mL)
- MIC (E. coli ATCC BAA-2523): 2 µM (≈ 1.39 µg/mL)
- MIC [3]: 4 µM (≈ 2.78 µg/mL)
- in vivo efficacy (bacteria loaded in thigh muscle tissue), compared with Plazomicin [4]: better in vivo efficacy than Plazomicin
